Results as given in patent US11370798B2 (Vertex Pharmaceuticals Incorporated, priority 2012, dated 2022).

Test system: HCT116 colorectal cancer cells
Assay: Cisplatin sensitization assay (96 h cell viability MTS);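 further: Test-compound concentration that lowers the Cisplatin IC50 by a set fold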
Assay type: cell-based
Conditions: compound and Cisplatin added simultaneously, Cisplatin sensitization value
Procedure, shortened: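 Compound and cisplatin added together as a full matrix of 2-fold serial dilutions from a top final concentration of 10 μM; cells incubated 96 h at 37° C, 5% CO2. Viability then read by MTS after 1 h further incubation; sensitization value reported in μM bins.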

Structure (SMILES)	Cisplatin Sensitization Assay
COCCN1CCC[C@H](Oc2ccncc2NC(=O)c2c(N)nn3cc(Cl)cnc23)C1 [I-O-67, (S)-2-amino-6-chloro-N-(4-((1-(2-methoxyethyl)piperidin-3-yl)oxy)pyridin-3-yl)pyrazolo[1,5-a]pyrimidine-3-carboxamide]	++ (Cisplatin sensitization value>0.02 μM but <0.2 μM)
Cn1ccnc1-c1ccncc1NC(=O)c1c(N)nn2cc(F)cnc12 [I-C-55, 2-amino-6-fluoro-N-(4-(1-methyl-1H-imidazol-2-yl)pyridin-3-yl)pyrazolo[1,5-a]pyrimidine-3-carboxamide]	+ (Cisplatin sensitization value>0.2 μM but <5 μM)
Nc1nn2cc(F)cnc2c1C(=O)Nc1cncc(C2CC2)c1N1CCN([C@H]2CCOC2)CC1 [I-N-120, (S)-2-amino-N-(5-cyclopropyl-4-(4-(tetrahydrofuran-3-yl)piperazin-1-yl)pyridin-3-yl)-6-fluoropyrazolo[1,5-a]pyrimidine-3-carboxamide]	+++ (Cisplatin sensitization value of <0.02 μM)
Nc1nn2cc(F)cnc2c1C(=O)Nc1cnccc1N1CCC(c2ncon2)CC1 [I-N-241, N-(4-(4-(1,2,4-oxadiazol-3-yl)piperidin-1-yl)pyridin-3-yl)-2-amino-6-fluoropyrazolo[1,5-a]pyrimidine-3-carboxamide]	+++ (Cisplatin sensitization value of <0.02 μM)
CCC(C#N)c1cnc2c(C(=O)Nc3cnccc3OC)c(N)nn2c1 (centres unmarked) [I-O-20, 2-amino-6-(1-cyanopropyl)-N-(4-methoxypyridin-3-yl)pyrazolo[1,5-a]pyrimidine-3-carboxamide]	++ (Cisplatin sensitization value>0.02 μM but <0.2 μM)
Nc1nn2cc(F)cnc2c1C(=O)Nc1cncc(Cl)c1N1CCN(C2CCOC2)CC1 (centres unmarked) [I-N-124, 2-amino-N-(5-chloro-4-(4-(tetrahydrofuran-3-yl)piperazin-1-yl)pyridin-3-yl)-6-fluoropyrazolo[1,5-a]pyrimidine-3-carboxamide]	+++ (Cisplatin sensitization value of <0.02 μM)
C[C@@H]1CN(C(=O)C2CCN(c3c(F)cncc3NC(=O)c3c(N)nn4cc(F)cnc34)CC2)CCN1C [I-G-50, (R)-2-amino-N-(4-(4-(3,4-dimethylpiperazine-1-carbonyl)piperidin-1-yl)-5-fluoropyridin-3-yl)-6-fluoropyrazolo[1,5-a]pyrimidine-3-carboxamide]	+++ (Cisplatin sensitization value of <0.02 μM)
Nc1nn2cc(F)cnc2c1C(=O)Nc1cncc(F)c1N1CCN(C(=O)C2CCN(C3COC3)CC2)CC1 [I-N-211, 2-amino-6-fluoro-N-(5-fluoro-4-(4-(1-(oxetan-3-yl)piperidine-4-carbonyl)piperazin-1-yl)pyridin-3-yl)pyrazolo[1,5-a]pyrimidine-3-carboxamide]	++ (Cisplatin sensitization value>0.02 μM but <0.2 μM)
CN(C)CC1CCN(c2ccncc2NC(=O)c2c(N)nn3cc(F)cnc23)CC1 [I-N-267, 2-amino-N-(4-(4-((dimethylamino)methyl)piperidin-1-yl)pyridin-3-yl)-6-fluoropyrazolo[1,5-a]pyrimidine-3-carboxamide]	+++ (Cisplatin sensitization value of <0.02 μM)
Nc1nn2cc(F)cnc2c1C(=O)Nc1cnccc1OC1CN2CCC1CC2 (racemic) [I-O-6, (R,S)-2-amino-6-fluoro-N-(4-(quinuclidin-3-yloxy)pyridin-3-yl)pyrazolo[1,5-a]pyrimidine-3-carboxamide]	+++ (Cisplatin sensitization value of <0.02 μM)
COc1ccncc1NC(=O)c1c(N)nn2cc(Cl)cnc12 [I-O-57, 2-amino-6-chloro-N-(4-methoxypyridin-3-yl)pyrazolo[1,5-a]pyrimidine-3-carboxamide]	+++ (Cisplatin sensitization value of <0.02 μM)
Nc1nn2cc(F)cnc2c1C(=O)Nc1cnccc1-c1ccc(C(=O)N2CCN3CCC2CC3)cc1 [I-C-48, N-(4-(4-(1,4-diazabicyclo[3.2.2]nonane-4-carbonyl)phenyl)pyridin-3-yl)-2-amino-6-fluoropyrazolo[1,5-a]pyrimidine-3-carboxamide]	+++ (Cisplatin sensitization value of <0.02 μM)
CN1CCN(c2ccncc2NC(=O)c2c(N)nn3cc(F)cnc23)CC1=O [I-N-209, 2-amino-6-fluoro-N-(4-(4-methyl-3-oxopiperazin-1-yl)pyridin-3-yl)pyrazolo[1,5-a]pyrimidine-3-carboxamide]	+++ (Cisplatin sensitization value of <0.02 μM)
Nc1nn2cc(F)cnc2c1C(=O)Nc1cnccc1OC1CC[S+]([O-])CC1 (centres unmarked) [I-O-44, 2-amino-6-fluoro-N-(4-((1-oxidotetrahydro-2H-thiopyran-4-yl)oxy)pyridin-3-yl)pyrazolo[1,5-a]pyrimidine-3-carboxamide]	++ (Cisplatin sensitization value>0.02 μM but <0.2 μM)
Nc1nn2cc(Cl)cnc2c1C(=O)Nc1cnccc1N1CCN(C2COC2)CC1 [I-N-58, 2-amino-6-chloro-N-(4-(4-(oxetan-3-yl)piperazin-1-yl)pyridin-3-yl)pyrazolo[1,5-a]pyrimidine-3-carboxamide]	++ (Cisplatin sensitization value>0.02 μM but <0.2 μM)
CCOc1ccncc1NC(=O)c1c(N)nn2cc(F)cnc12 [I-O-14, 2-amino-N-(4-ethoxypyridin-3-yl)-6-fluoropyrazolo[1,5-a]pyrimidine-3-carboxamide]	+++ (Cisplatin sensitization value of <0.02 μM)
CN1CCC[C@H]1COc1ccncc1NC(=O)c1c(N)nn2cc(Cl)cnc12 [I-O-50, (S)-2-amino-6-chloro-N-(4-((1-methylpyrrolidin-2-yl)methoxy)pyridin-3-yl)pyrazolo[1,5-a]pyrimidine-3-carboxamide]	+ (Cisplatin sensitization value>0.2 μM but <5 μM)
COC1CCN(C2CCN(c3ccncc3NC(=O)c3c(N)nn4cc(Cl)cnc34)CC2)C1 (centres unmarked) [I-N-95, 2-amino-6-chloro-N-(4-(4-(3-methoxypyrrolidin-1-yl)piperidin-1-yl)pyridin-3-yl)pyrazolo[1,5-a]pyrimidine-3-carboxamide]	++ (Cisplatin sensitization value>0.02 μM but <0.2 μM)
Nc1nn2cc(Cl)cnc2c1C(=O)Nc1cnccc1N1CCN2CCC1CC2 [I-N-56, N-(4-(1,4-diazabicyclo[3.2.2]nonan-4-yl)pyridin-3-yl)-2-amino-6-chloropyrazolo[1,5-a]pyrimidine-3-carboxamide]	++ (Cisplatin sensitization value>0.02 μM but <0.2 μM)
CN1CC2CN(C(=O)C3CCN(c4c(F)cncc4NC(=O)c4c(N)nn5cc(F)cnc45)CC3)CC2C1 (centres unmarked) [I-G-18, 2-amino-6-fluoro-N-(5-fluoro-4-(4-(5-methyloctahydropyrrolo[3,4-c]pyrrole-2-carbonyl)piperidin-1-yl)pyridin-3-yl)pyrazolo[1,5-a]pyrimidine-3-carboxamide]	+++ (Cisplatin sensitization value of <0.02 μM)
CN1CC[C@@H](Oc2ccncc2NC(=O)c2c(N)nn3cc(Cl)cnc23)C1 [I-O-63, (R)-2-amino-6-chloro-N-(4-((1-methylpyrrolidin-3-yl)oxy)pyridin-3-yl)pyrazolo[1,5-a]pyrimidine-3-carboxamide]	++ (Cisplatin sensitization value>0.02 μM but <0.2 μM)
Nc1nn2cc(F)cnc2c1C(=O)Nc1cncc(F)c1N1CCC(C(=O)N2CC(N3CCCCC3)C2)CC1 [I-G-57, 2-amino-6-fluoro-N-(5-fluoro-4-(4-(3-(piperidin-1-yl)azetidine-1-carbonyl)piperidin-1-yl)pyridin-3-yl)pyrazolo[1,5-a]pyrimidine-3-carboxamide]	+++ (Cisplatin sensitization value of <0.02 μM)
COc1ccncc1NC(=O)c1c(N)nn2cc(C(C)C#N)cnc12 (centres unmarked) [I-O-21, 2-amino-6-(1-cyanoethyl)-N-(4-methoxypyridin-3-yl)pyrazolo[1,5-a]pyrimidine-3-carboxamide]	++ (Cisplatin sensitization value>0.02 μM but <0.2 μM)
Nc1nn2cc(F)cnc2c1C(=O)Nc1cncc(F)c1N1CCC(C(=O)N2CCC(N3CCC3)CC2)CC1 [I-G-68, 2-amino-N-(4-(4-(4-(azetidin-1-yl)piperidine-1-carbonyl)piperidin-1-yl)-5-fluoropyridin-3-yl)-6-fluoropyrazolo[1,5-a]pyrimidine-3-carboxamide]	+++ (Cisplatin sensitization value of <0.02 μM)
Nc1nn2cc(F)cnc2c1C(=O)Nc1cnccc1-c1ccccc1 [I-C-5, 2-amino-6-fluoro-N-(4-phenylpyridin-3-yl)pyrazolo[1,5-a]pyrimidine-3-carboxamide]	+++ (Cisplatin sensitization value of <0.02 μM)
COCC1CN(c2ccncc2NC(=O)c2c(N)nn3cc(Cl)cnc23)CCN1C (centres unmarked) [I-N-47, 2-amino-6-chloro-N-(4-(3-(methoxymethyl)-4-methylpiperazin-1-yl)pyridin-3-yl)pyrazolo[1,5-a]pyrimidine-3-carboxamide]	++ (Cisplatin sensitization value>0.02 μM but <0.2 μM)
Nc1nn2cc(F)cnc2c1C(=O)Nc1cnccc1C1CCOC1 (centres unmarked) [I-C-75, 2-amino-6-fluoro-N-(4-(tetrahydrofuran-3-yl)pyridin-3-yl)pyrazolo[1,5-a]pyrimidine-3-carboxamide]	++ (Cisplatin sensitization value>0.02 μM but <0.2 μM)
Nc1nn2cc(F)cnc2c1C(=O)Nc1cnccc1N1CCC(C(=O)N2CCC3(COC3)C2)CC1 [I-G-84, N-(4-(4-(2-oxa-6-azaspiro[3.4]octane-6-carbonyl)piperidin-1-yl)pyridin-3-yl)-2-amino-6-fluoropyrazolo[1,5-a]pyrimidine-3-carboxamide]	+++ (Cisplatin sensitization value of <0.02 μM)
CC(C)(O)CN1CCN(c2c(F)cncc2NC(=O)c2c(N)nn3cc(F)cnc23)CC1 [I-N-139, 2-amino-6-fluoro-N-(5-fluoro-4-(4-(2-hydroxy-2-methylpropyl)piperazin-1-yl)pyridin-3-yl)pyrazolo[1,5-a]pyrimidine-3-carboxamide]	+++ (Cisplatin sensitization value of <0.02 μM)
